Assays:
[1] = test system: ARPE19 cells; test: Cell viability under hydrogen peroxide-induced oxidative stress (CCK-8); format: cell-based, Human; settings: 400 µM hydrogen peroxide, test substance 0.01, 0.1, 1, 2 µM, 24 hours
Method: (§1) Human retinal pigment epithelial cells (ARPE19) were cultured in a humidified incubator with 5% CO2 at 37°C. DMEM/F12 (Gibco) containing 10% fetal bovine serum and penicillin (100 U/ml)/streptomycin ([…]) was used as medium. The cells were cultured with the medium replaced with fresh medium every other day and were passaged using 0.25% trypsin containing 0.02% ethylenediaminetetraacetic acid (EDTA).
After oxidative stress was induced in human retinal pigment epithelial cells using hydrogen peroxide (H2O2), the test substance (SE101B2L) was added at varying concentrations to confirm changes in cell viability. CCK-8 was used to confirm cell viability.
ARPE19 cells were seeded into a 96-well plate at 1 × 10^4 cells/well and cultured in an incubator for 24 hours. The test substance was added to each treatment group at concentrations of 0, 0.01, 0.1, 1, and 2 µM, together with 400 µM hydrogen peroxide, followed by incubation for 24 hours. […] After incubation, a 96-well plate containing 90 µL of cell suspension per well was inoculated with 10 µL of ready-to-use CCK-8 solution. The plate was incubated for 2 hours, and the OD450 of the supernatant was measured to confirm cell viability through quantification.

[2] = test system: ARPE19 cells; test: Hydrogen peroxide-induced apoptosis (phosphatidylserine / CytoCalcein Violet 450 staining); format: cell-based, Human; settings: 200 µM hydrogen peroxide, test substance 0.01, 0.1, 1 µM, 24 hours
Method: as §1
After apoptosis was induced in ARPE19 cells using hydrogen peroxide (H2O2), the test substance (SE101B2L) was added at varying concentrations to evaluate inhibitory effects against apoptosis. Inhibitory effects against apoptosis were measured using phosphatidylserine (PS), which is exposed on the surface of apoptotic cells.
ARPE19 cells were seeded into a 24-well microplate containing coverslips at 1 × 10^6 cells/well and cultured in an incubator with 5% CO2 at 37°C for 24 hours. When approximately 80% confluency was reached, the test substance was added to each treatment group at concentrations of 0, 0.01, 0.1, and 1 µM, together with 200 µM hydrogen peroxide, followed by incubation for 24 hours. […] Emission signals detected from each cell were measured using a digital fluorescence microscope (CELENA S digital imaging system, Logos Biosystems, Korea) to quantify apoptotic cells and live cells.

Substance: decylbenzoyl-Cys-Phe-Lys-amide [SE101B2L]
- cell viability [1]: increases cell viability in a concentration-dependent manner
- apoptotic cells (green) [2]: apoptotic cells (green) decrease
- live cells (blue) [2]: live cells (blue) increase in a concentration-dependent manner
